For 18 molecules, IC50 and Kd results are on record in patent publication US10246466B2, “Diaryl macrocycles as modulators of protein kinases” (TP THERAPEUTICS, INC., priority 2014, dated 2019).

Some results are limits rather than exact numbers.

In assay [1] the test system is Essential thrombocythemia cell line SET-2 cells (harboring endogenous JAK2 point mutation). Put plainly: SET-2 cell proliferation assay (CellTiter-Glo). The format is cell-based. The conditions noted are these: Homo sapiens, 72 hours incubation, read-out: SET2 cell proli. IC50. Background: ATP-based viability assays read luminescence as a measure of living cells.
The test system of assay [2] is Colorectal cell line KM12 (harboring endogenous TPM3-TRKA fusion gene). Put plainly: KM12 cell proliferation assay (CellTiter-Glo). The format is cell-based. The conditions noted are these: Homo sapiens, 72 hours incubation, read-out: KM 12 cell prolif. IC50. As to the method: Colorectal cell lines KM 12 (harboring endogenous TPM3-TRKA fusion gene) cells were cultured in DMEM medium, supplemented with 10% fetal bovine serum and 100 U/mL of penicillin/streptomycin. 5000 cells were seeded in 384 well white plate for 24 hours before compounds treatment. Cell proliferation was measured using CellTiter-Glo luciferase-based ATP detection assay (Promega) following the manufactures's protocol after 72 hours incubation. IC50 determinations were performed using GraphPad Prism software (GraphPad, Inc., San Diego, Calif.).
Alternatively: Colorectal cell line KM12 (harboring endogenous TPM3-TRKA fusion gene) cells were cultured in DMEM medium, supplemented with 10% fetal bovine serum and 100 U/mL of penicillin/streptomycin. […] 5000 cells were seeded in 384 well white plate for 24 hours before compounds treatment. Cell proliferation was measured using CellTiter-Glo luciferase-based ATP detection assay (Promega) following the manufactures's protocol after 72 hours incubation. IC50 determinations were performed using GraphPad Prism software (GraphPad, Inc., San Diego, Calif.).

In assay [3] the test system is T cell lymphoma Karpas-299 cell line (harboring endogenous NPM-ALK fusion gene). The assay is described as follows: Karpas-299 cell proliferation assay (CellTiter-Glo). As to conditions: Homo sapiens, 72 hours incubation, read-out: Karpas 299 cell proli. IC50. It counts as cell-based.
Another assay addresses ALK (Homo sapiens (Human), UniProt Q9UM73). The assay is described as follows: KINOMEscan kinase binding assay (DiscoveRx). The protocol: (§1) For most assays, kinase-tagged T7 phage strains were prepared in an E. coli host derived from the BL21 strain. E. coli were grown to log-phase and infected with T7 phage and incubated with shaking at 32° C. until lysis. The lysates were centrifuged and filtered to remove cell debris. The remaining kinases were produced in HEK-293 cells and subsequently tagged with DNA for qPCR detection. […] The liganded beads were blocked with excess biotin and washed with blocking buffer (SeaBlock (Pierce), 1% BSA, 0.05% Tween 20, 1 mM DTT) to remove unbound ligand and to reduce nonspecific binding. […] All reactions were performed in polystyrene 96-well plates in a final volume of 0.135 mL. […] The kinase concentration in the eluates was measured by qPCR.

In a further assay the target is JAK2 (Homo sapiens (Human), UniProt O60674). Put plainly: KINOMEscan kinase binding assay (DiscoveRx). As to the method:
as §1

Another assay addresses TRKA (Homo sapiens (Human), UniProt P04629). The assay is described as follows: KINOMEscan kinase binding assay (DiscoveRx). As to the method: Kinase binding assays were performed at DiscoveRx using the general KINOMEscan Kd Protocol (Fabian, M. A. et al., “A small molecule-kinase interaction map for clinical kinase inhibitors,” Nat. Biotechnol. 2005, 23(3):329-36). For most assays, kinase-tagged T7 phage strains were prepared in an E. coli host derived from the BL21 strain. E. coli were grown to log-phase and infected with T7 phage and incubated with shaking at 32° C. until lysis. The lysates were centrifuged and filtered to remove cell debris. The remaining kinases were produced in HEK-293 cells and subsequently tagged with DNA for qPCR detection. Streptavidin-coated magnetic beads were treated with biotinylated small molecule ligands for 30 minutes at room temperature to generate affinity resins for kinase assays. The liganded beads were blocked with excess biotin and washed with blocking buffer (SeaBlock (Pierce), 1% BSA, 0.05% Tween 20, 1 mM DTT) to remove unbound ligand and to reduce nonspecific binding. […] All reactions were performed in polystyrene 96-well plates in a final volume of 0.135 mL. […] The beads were then re-suspended in elution buffer (1×PBS, 0.05% Tween 20, 0.5 μM non-biotinylated affinity ligand) and incubated at room temperature with shaking for 30 minutes. The kinase concentration in the eluates was measured by qPCR.

Chain of TRKA (P04629 33-796): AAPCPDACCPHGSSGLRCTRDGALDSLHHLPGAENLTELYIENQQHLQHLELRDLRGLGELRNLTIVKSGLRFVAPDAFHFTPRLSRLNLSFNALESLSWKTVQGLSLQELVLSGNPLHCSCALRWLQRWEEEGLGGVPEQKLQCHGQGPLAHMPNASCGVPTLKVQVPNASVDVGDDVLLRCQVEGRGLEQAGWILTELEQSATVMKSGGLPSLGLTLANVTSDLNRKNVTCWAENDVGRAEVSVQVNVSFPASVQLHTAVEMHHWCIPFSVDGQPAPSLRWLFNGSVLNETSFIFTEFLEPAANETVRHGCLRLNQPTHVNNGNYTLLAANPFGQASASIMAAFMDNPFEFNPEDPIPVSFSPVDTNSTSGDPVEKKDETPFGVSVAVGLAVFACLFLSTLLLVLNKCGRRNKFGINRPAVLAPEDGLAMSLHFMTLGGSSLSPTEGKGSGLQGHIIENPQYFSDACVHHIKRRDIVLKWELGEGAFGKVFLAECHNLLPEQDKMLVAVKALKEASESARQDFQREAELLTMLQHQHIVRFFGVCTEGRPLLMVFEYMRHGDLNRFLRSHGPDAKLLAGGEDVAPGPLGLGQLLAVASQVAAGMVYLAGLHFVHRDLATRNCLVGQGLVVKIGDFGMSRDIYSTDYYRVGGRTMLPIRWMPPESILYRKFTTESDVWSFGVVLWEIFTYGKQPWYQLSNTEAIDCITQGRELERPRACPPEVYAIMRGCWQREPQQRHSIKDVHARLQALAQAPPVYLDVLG
Chain of JAK2 (O60674 whole entry): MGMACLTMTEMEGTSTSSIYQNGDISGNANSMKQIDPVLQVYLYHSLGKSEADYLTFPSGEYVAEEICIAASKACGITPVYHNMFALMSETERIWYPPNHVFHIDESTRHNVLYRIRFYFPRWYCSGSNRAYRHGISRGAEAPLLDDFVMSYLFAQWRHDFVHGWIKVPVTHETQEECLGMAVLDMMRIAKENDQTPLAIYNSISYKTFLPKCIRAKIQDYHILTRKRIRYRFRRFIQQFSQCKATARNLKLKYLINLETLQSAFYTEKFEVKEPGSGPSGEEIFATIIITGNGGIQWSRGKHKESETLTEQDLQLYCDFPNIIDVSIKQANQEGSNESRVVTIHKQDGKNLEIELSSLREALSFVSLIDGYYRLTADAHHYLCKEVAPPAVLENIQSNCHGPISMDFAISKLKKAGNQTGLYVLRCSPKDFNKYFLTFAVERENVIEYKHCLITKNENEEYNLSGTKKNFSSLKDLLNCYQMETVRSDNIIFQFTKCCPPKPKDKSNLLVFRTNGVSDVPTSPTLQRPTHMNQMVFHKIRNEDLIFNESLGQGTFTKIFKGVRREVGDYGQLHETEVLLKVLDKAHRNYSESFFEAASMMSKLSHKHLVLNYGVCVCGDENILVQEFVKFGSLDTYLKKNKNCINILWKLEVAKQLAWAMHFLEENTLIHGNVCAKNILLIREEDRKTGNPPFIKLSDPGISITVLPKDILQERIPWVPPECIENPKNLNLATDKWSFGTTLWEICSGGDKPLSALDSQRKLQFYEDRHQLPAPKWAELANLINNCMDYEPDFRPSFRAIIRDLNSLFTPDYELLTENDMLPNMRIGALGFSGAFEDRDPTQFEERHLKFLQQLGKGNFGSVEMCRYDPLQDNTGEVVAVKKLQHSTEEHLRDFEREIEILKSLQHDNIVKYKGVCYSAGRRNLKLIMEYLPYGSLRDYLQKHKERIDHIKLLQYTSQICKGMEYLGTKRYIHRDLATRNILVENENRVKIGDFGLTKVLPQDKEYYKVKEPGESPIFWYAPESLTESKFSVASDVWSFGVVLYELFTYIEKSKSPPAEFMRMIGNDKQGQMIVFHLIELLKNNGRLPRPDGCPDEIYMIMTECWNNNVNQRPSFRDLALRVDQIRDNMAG
Chain of ALK (Q9UM73 19-1620): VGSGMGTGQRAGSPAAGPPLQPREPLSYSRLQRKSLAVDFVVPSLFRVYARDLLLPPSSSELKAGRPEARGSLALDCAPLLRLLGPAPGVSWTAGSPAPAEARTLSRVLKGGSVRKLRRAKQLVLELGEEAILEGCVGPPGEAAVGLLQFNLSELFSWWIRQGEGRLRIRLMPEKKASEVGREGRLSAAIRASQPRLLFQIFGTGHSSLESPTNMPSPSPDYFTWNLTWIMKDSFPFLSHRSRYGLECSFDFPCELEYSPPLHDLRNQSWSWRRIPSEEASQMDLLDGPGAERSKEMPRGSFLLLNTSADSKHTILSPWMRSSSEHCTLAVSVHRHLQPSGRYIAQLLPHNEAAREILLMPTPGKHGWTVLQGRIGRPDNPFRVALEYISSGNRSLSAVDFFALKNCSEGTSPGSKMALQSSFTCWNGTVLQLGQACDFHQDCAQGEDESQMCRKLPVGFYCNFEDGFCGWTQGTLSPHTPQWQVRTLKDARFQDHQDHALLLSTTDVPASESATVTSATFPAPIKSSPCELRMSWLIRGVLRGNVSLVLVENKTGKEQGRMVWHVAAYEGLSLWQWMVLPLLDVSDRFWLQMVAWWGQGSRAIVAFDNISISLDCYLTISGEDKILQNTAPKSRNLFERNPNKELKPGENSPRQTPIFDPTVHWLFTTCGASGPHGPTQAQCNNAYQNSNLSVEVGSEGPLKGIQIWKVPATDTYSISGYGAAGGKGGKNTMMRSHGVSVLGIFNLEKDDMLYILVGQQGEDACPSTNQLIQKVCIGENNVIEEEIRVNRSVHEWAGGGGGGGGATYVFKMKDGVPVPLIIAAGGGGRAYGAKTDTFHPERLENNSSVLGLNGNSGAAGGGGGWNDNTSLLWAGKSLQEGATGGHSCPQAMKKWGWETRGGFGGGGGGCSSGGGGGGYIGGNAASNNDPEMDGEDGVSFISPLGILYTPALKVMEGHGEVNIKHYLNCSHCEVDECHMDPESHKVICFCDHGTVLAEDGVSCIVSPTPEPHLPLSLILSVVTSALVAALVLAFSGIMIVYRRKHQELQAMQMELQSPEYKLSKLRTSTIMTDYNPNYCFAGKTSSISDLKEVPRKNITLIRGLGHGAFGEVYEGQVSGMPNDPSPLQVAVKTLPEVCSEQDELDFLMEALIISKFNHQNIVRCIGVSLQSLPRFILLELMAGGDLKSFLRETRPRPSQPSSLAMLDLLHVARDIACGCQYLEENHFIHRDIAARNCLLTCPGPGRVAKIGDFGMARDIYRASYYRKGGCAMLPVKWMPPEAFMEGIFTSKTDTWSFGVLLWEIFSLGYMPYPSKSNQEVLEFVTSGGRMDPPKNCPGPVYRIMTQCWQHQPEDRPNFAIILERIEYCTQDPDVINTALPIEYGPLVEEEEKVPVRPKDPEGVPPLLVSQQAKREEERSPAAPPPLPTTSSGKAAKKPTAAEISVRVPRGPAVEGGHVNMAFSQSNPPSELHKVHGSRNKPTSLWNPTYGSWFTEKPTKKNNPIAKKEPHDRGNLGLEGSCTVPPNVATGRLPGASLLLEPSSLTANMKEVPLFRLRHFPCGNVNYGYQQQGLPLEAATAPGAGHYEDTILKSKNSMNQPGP

With `O=C1NCCOc2ccc(F)cc2C(CO)Nc2ccn3ncc1c3n2` (stereo not shown) [Example 98, 11-fluoro-13-(hydroxymethyl)-6,7,13,14-tetrahydro-1,15-ethenopyrazolo[4,3-f][1,4,8,10]benzoxatriazacyclotridecin-4(5H)-one], the values for the concentration for half-maximal inhibition (IC50) in assay [1], in assay [2] and in assay [3] were 808 nM, 7.4 nM and 281 nM, respectively. For the same molecule, the figures for the dissociation constant (Kd) at ALK and at JAK2 were 14 nM and 0.74 nM, respectively.
Regarding `CC(C)N1Cc2cc(F)ccc2OCCNC(=O)c2cnn3ccc1nc23` [Example 45, 11-fluoro-14-(propan-2-yl)-6,7,13,14-tetrahydro-1,15-ethenopyrazolo[4,3-f][1,4,8,10]benzoxatriazacyclotridecin-4(5H)-one], the results for the IC50 in assay [1], in assay [2] and in assay [3] were 8000 nM, 0.35 nM and over 10000 nM, respectively. The equilibrium dissociation constant (Kd) (usually the concentration at which binding is half-saturated) on TRKA came out at 0.082 nM; at JAK2, 7.8 nM.
The like results for `CN1Cc2cc(F)ccc2OCCCNC(=O)c2cnn3ccc1nc23` [Example 75, 12-fluoro-15-methyl-5,6,7,8,14,15-hexahydro-4H-1,16-ethenopyrazolo[4,3-g][1,5,9,11]benzoxatriazacyclotetradecin-4-one] were, in that order, 4440 nM, 0.6 nM, 3900 nM, 0.015 nM and 6.5 nM.
As to `CCN1Cc2cc(F)ccc2OCCNC(=O)c2cnn3ccc1nc23` [Example 43, 14-ethyl-11-fluoro-6,7,13,14-tetrahydro-1,15-ethenopyrazolo[4,3-f][1,4,8,10]benzoxatriazacyclotridecin-4(5H)-one], the results for the IC50 in assay [1], in assay [2] and in assay [3] were 1700 nM, 2.6 nM and 2800 nM, respectively. Besides, the Kd stood at 0.086 nM at TRKA and 3.7 nM at JAK2.
Turning to `CN1Cc2ccccc2OCCNC(=O)c2cnn3ccc1nc23` [Example 49, 14-methyl-6,7,13,14-tetrahydro-1,15-ethenopyrazolo[4,3-f][1,4,8,10]benzoxatriazacyclotridecin-4(5H)-one], the half-maximal inhibitory concentration (IC50) – broadly, the point on the concentration scale where inhibition reaches its midpoint – in assay [1] worked out at 7000 nM; in assay [2], 6.7 nM; in assay [3], 3900 nM. Besides, the results for the equilibrium dissociation constant (Kd) at TRKA and at JAK2 were 0.14 nM and 24 nM, respectively.
Consider `C[C@@H]1COc2ccc(F)cc2[C@@H](C)Nc2ccn3ncc(c3n2)C(=O)N1` [Example 110, (6R,13R)-11-fluoro-6,13-dimethyl-6,7,13,14-tetrahydro-1,15-ethenopyrazolo[4,3-f][1,4,8,10]benzoxatriazacyclotridecin-4(5H)-one], for which the values for the 50% inhibitory concentration (IC50) in assay [1], in assay [2] and in assay [3] were 219 nM, 0.7 nM and 163 nM, respectively.
On the same counts, the results for `O=C1NCCOc2ccc(F)cc2CCc2ccn3ncc1c3n2` [Example 102, 11-fluoro-6,7,13,14-tetrahydro-1,15-ethenopyrazolo[4,3-f][1,4,8]benzoxadiazacyclotridecin-4(5H)-one] are 2450 nM, 1.2 nM and 2300 nM.
In the case of `O=C1NCCOc2ccc(F)cc2CN(C2CC2)c2ccn3ncc1c3n2` [Example 46, 14-cyclopropyl-11-fluoro-6,7,13,14-tetrahydro-1,15-ethenopyrazolo[4,3-f][1,4,8,10]benzoxatriazacyclotridecin-4(5H)-one], the half-inhibitory concentration (IC50) was 7000 nM in assay [1], 1.5 nM in assay [2] and 7100 nM in assay [3].
Turning to `CC1c2cc(F)ccc2OCCNC(=O)c2cnn3ccc(nc23)N1C` (stereo not shown) [Example 100, 11-fluoro-13,14-dimethyl-6,7,13,14-tetrahydro-1,15-ethenopyrazolo[4,3-f][1,4,8,10]benzoxatriazacyclotridecin-4(5H)-one], the IC50 in assay [1] worked out at 5830 nM; in assay [2] it was 0.6 nM; in assay [3], 5360 nM.
As for `C[C@H]1CNC(=O)c2cnn3ccc(nc23)N(C)Cc2cc(F)ccc2O1` [Example 97, (7S)-11-fluoro-7,14-dimethyl-6,7,13,14-tetrahydro-1,15-ethenopyrazolo[4,3-f][1,4,8,10]benzoxatriazacyclotridecin-4(5H)-one], the 50% inhibitory concentration (IC50) in assay [1] was determined as 6500 nM; in assay [2] it was 0.3 nM; in assay [3], 1420 nM.
For the molecule `CN1Cc2cc(F)ccc2OCCNC(=O)c2cnc3ccc1nn23` [Example 42, 10-fluoro-7-methyl-7,8,15,16-tetrahydro-3,6-ethenoimidazo[5,1-f][1,4,7,8,10]benzoxatetraazacyclotridecin-17(14H)-one], the IC50 is 2000 nM in assay [1], 4 nM in assay [2] and 3400 nM in assay [3]. Besides, binding at TRKA was characterised by a dissociation constant (Kd) of 0.088 nM.
On to `O=C1NCCOc2ccc(F)cc2C(c2ccccc2)Nc2ccn3ncc1c3n2` (stereo not shown) [Example 88, 11-fluoro-13-phenyl-6,7,13,14-tetrahydro-1,15-ethenopyrazolo[4,3-f][1,4,8,10]benzoxatriazacyclotridecin-4(5H)-one], for which the figures for the concentration for half-maximal inhibition (IC50) in assay [1], in assay [2] and in assay [3] were 1900 nM, 50.4 nM and 3130 nM, respectively.
`C[C@H]1CNC(=O)c2cnn3ccc(nc23)N[C@H](CO)c2cc(F)ccc2O1` [Example 111, (7S,13S)-11-fluoro-13-(hydroxymethyl)-7-methyl-6,7,13,14-tetrahydro-1,15-ethenopyrazolo[4,3-f][1,4,8,10]benzoxatriazacyclotridecin-4(5H)-one]: the half-inhibitory concentration (IC50) was 2000 nM in assay [1], 76 nM in assay [2] and 329 nM in assay [3].
The like results for `CCCN1Cc2cc(F)ccc2OCCNC(=O)c2cnn3ccc1nc23` [Example 44, 11-fluoro-14-propyl-6,7,13,14-tetrahydro-1,15-ethenopyrazolo[4,3-f][1,4,8,10]benzoxatriazacyclotridecin-4(5H)-one] were, in that order, 2030 nM, 9.9 nM and 4100 nM.
Turning to `O=C1NCCOc2ccc(F)cc2CNc2ccn3ncc1c3n2` [Example 50, 11-fluoro-6,7,13,14-tetrahydro-1,15-ethenopyrazolo[4,3-f][1,4,8,10]benzoxatriazacyclotridecin-4(5H)-one], the 50% inhibitory concentration (IC50) in assay [1] is 6000 nM; in assay [2] it was 74 nM; in assay [3], 4100 nM. For the same molecule, the Kd on TRKA is 0.2 nM; at JAK2, 0.57 nM.
With `C[C@@H]1CNC(=O)c2cnn3ccc(nc23)N(C)Cc2cc(F)ccc2O1` [Example 94, (7R)-11-fluoro-7,14-dimethyl-6,7,13,14-tetrahydro-1,15-ethenopyrazolo[4,3-f][1,4,8,10]benzoxatriazacyclotridecin-4(5H)-one], the half-inhibitory concentration (IC50) in assay [1] was over 10000 nM; in assay [2], 0.2 nM; in assay [3] it was over 10000 nM.
`[2H]C1([2H])NC(=O)c2cnn3ccc(nc23)N(C)Cc2cc(F)ccc2OC1([2H])[2H]` [Example 87, 11-fluoro-14-methyl(6,6,7,7-^2H4)-6,7,13,14-tetrahydro-1,15-ethenopyrazolo[4,3-f][1,4,8,10]benzoxatriazacyclotridecin-4(5H)-one]: the half-maximal inhibitory concentration (IC50) in assay [1] amounted to 2730 nM; in assay [2], 0.3 nM; in assay [3], 1590 nM.
Take `CN1Cc2cc(F)ccc2[S+]([O-])CCNC(=O)c2cnn3ccc1nc23` (stereo not shown) [Example 106, 11-fluoro-14-methyl-6,7,13,14-tetrahydro-1,15-ethenopyrazolo[4,3-f][1,4,8,10]benzothiatriazacyclotridecin-4(5H)-one 8-oxide]: the IC50 was over 10000 nM in assay [1], 176 nM in assay [2] and over 10000 nM in assay [3].
